# “Also recorded” adds a separate entry of the source.
# Columns and labels:
# pS897-EphA2 = assay: Immunoblot with polyclonal anti-pS897-EphA2, U373 cells; format: cell-based, human; details: for serum-induced pS897-EphA2 under FGFR inhibition: U373 cells pretreated with 10 μM SU5402 or 100 nM BU for 30 min, 10% FBS 10 min; for induction of pS897-EphA2: serum-starved U373 cells, 10 ng/ml growth factor, 10 min
# Protocol: For stationary cells, sub-confluent cells were stimulated with 1 μg/ml ephrinA1-Fc for different times. To study the signaling events in migrating cells, the monolayer of freshly confluent cells was wounded by repeated scratch-wounding using a multichannel pipette. By doing so, the cells on the wound edges were induced to migrate. Four hours after wounding cells were stimulated with 1 μg/ml ephrinA1-Fc for different times. To look at the serum-induced signaling, cells were starved in serum-free medium overnight before stimulation or wounding. Both stationary and wounded cells were stimulated with 10% FBS in the presence of 1 μg/ml Fc or ephrinA1-Fc. Immunoprecipitation and immunoblot were performed as described previously (Nat. Cell Biol. 2, 62-69).
# U373 cells = assay: Boyden chamber chemotactic cell migration assay; format: cell-based, human; details: 10 ng/ml growth factor or 10 μM LPA
# Protocol: The chemotactic cell migration was carried out as described previously (J. Cell Biol. 162, 1281-1292). Briefly, both sides of the filter were coated with 10 μg/ml rat tail collagen type I at 4° C. overnight. 1×10^5 cells in serum-free medium containing 0.1% BSA were plated in the top of insert. EphrinA1-Fc or Fc was added to a final concentration of 1 μg/ml to the lower chamber together 5% FBS or various growth factors. Cells were allowed to migrate for 4 hours and then fixed with 4% paraformaldehyde. After staining with 0.5% crystal violet, cells that have passed through the filter and stayed on the undersides of inserts were counted.
Molecule,serum-induced pS897-EphA2 under FGFR inhibition (pS897-EphA2),chemoattractant activity (chemotactic cell migration) (U373 cells),induction of pS897-EphA2 (pS897-EphA2),"serum-induced pS897-EphA2 (S897 phosphorylation) (pS897-EphA2; serum-starved U373 cells pretreated with 10 μM inhibitor (SH-5 30 min; LY294002 1 hour), FBS 10 min)"
"Cc1c[nH]c(/C=C2\C(=O)Nc3ccccc32)c1CCC(=O)O [SU5402, reference compound]",not sufficient for inhibiting serum-induced pS897-EphA2,,,
PDGF,,potent chemoattractants,capable of inducing pS897-EphA2,
"CCCCCCCCCCCCCCCCCCOC[C@H](COP(=O)(O)O[C@H]1[C@H](O)[C@@H](O)[C@H](O)C[C@H]1OC)OC [SH-5, reference compound]",,,,suppressed S897 phosphorylation; also recorded: abolishes serum-induced pS897-EphA2
"EGF: growth factor implicated in development of human GBM (NSDSECPLSHDGYCLHDGVCMYIEALDKYACNCVVGYIGERCQYRDLKWWELR; UniProt P01133 971-1023, looked up)",,potent chemoattractants,capable of inducing pS897-EphA2,
HGF: growth factor implicated in development of human GBM,,potent chemoattractants,capable of inducing pS897-EphA2,
bFGF: growth factor implicated in development of human GBM,,potent chemoattractants,capable of inducing pS897-EphA2,
"COc1cc(OC)cc(-c2cc3cnc(N)nc3nc2NC(=O)NC(C)(C)C)c1 [BU, 1-(2-Amino-6-(3,5-dimethoxyphenyl)pyrido[2,3-d]pyrimidin-7-yl)-3-tert-butyl urea, reference compound]",not sufficient for inhibiting serum-induced pS897-EphA2,,,
